For series [1], the system named is Fmr1 KO and wildtype NPCs. Kind of series: Differentiation assay of cultured NPCs (Tuj1 neurons, GFAP astrocytes). It counts as cell-based, mouse. The settings on record: 4 days.
Description: NPCs were isolated from the dentate gyms of 8 to 10-week-old male Fmr1 KO mice and wild-type (wildtype) littermate controls based on our published methods (12, 64). Independently isolated cells serve as biological replicates. Proliferation and differentiation of NPCs was analyzed as described (11, 12, 61). We used only early passage cells (between passage 4 and 10) and only the same passage numbers of wildtype and Fmr1 KO cells. For each experiment, triplicate wells of cells were analyzed, and results were averaged as one data point (n=1). At least 3 independent biological replicates were used (n=3) for statistical analyses.
Proliferation and differentiation of aNPCs were analyzed using our published methods (Guo et al., Nature Med. (2011); Guo et al., Neuron 70, 924-938 (2011); Luo et al., PLoS Genet 6 (2010); Liu et al., Cell Stem Cell 6 (2010)). We used only early passage cells (between passage 4 and 10) and only the same passage numbers of wild type (WT) and Fmr1 KO cells. For each experiment, triplicate wells of cells were analyzed, and results were averaged as one data point (n=1). At least 3 independent experiments (n=3) were performed and used for statistical analyses for each analysis. […] For the differentiation assay, at 24 h post-plating, cells were changed into differentiation medium, Neurobasal A, containing 5 μM forskolin (Sigma-Aldrich, F-6886) and 1 μM retinoic acid (Sigma-Aldrich, R-2625) for 4 d, followed by fixation with 4% paraformaldehyde for 30 min, and then washed with Dulbecco's Phosphate Buffered Saline (DPBS), pH 7.4 for 30 min. Immunocytochemistry staining was carried out as described (Guo et al., Nature Med. (2011); Guo et al., Neuron 70, 924-938 (2011); Luo et al., PLoS Genet 6 (2010); Liu et al., Cell Stem Cell 6 (2010)). Briefly, cells were preblocked using DPBS containing 5% normal goat serum (VECTOR, S-1000) and 0.1% Triton X-100 for 30 min, followed by overnight incubation with primary antibodies: mouse anti-Tuj1 (1:1000, Promega, G712A) and rabbit anti-S100β (1:1000, Dako, Z0334).
After washing with Dulbecco s Phosphate Buffered Saline (DPBS), cells were incubated with secondary antibodies that included goat anti-mouse 568 (1:1000, Invitrogen, A11031), goat anti-rabbit 488 (1:1000, Invitrogen, A11008) followed by counterstaining with the fluorescent nuclear dye 4′,6-diamidino-2′-phenylindole dihydrochloride (DAPI, Sigma-Aldrich, B2261). […] (VECTOR, H-1000), the numbers of Tuj1, GFAP-positive cells were quantified using an Olympus BX51 microscope equipped with a MicroFire digital camera (Optronics) and a motorized stage using a 20× objective lens. The quantification was carried out using an unbiased stereology method with assistance from StereoInvestigator software (MBF Biosciences). The percentage of differentiated cells was calculated as the number of Tuj1- or GFAP-labeled cells divided by the total number of cells stained with DAPI.
Series [2] has as its system Fmr1 KO and wildtype NPCs. Kind of series: Cell death analysis (PI/Hoechst, CellTiter-Glo viability) of NPCs. It counts as cell-based, mouse. The settings on record: 2 μM Nutlin-3. The text has this:
Three different methods were used to assay cell death. Fluorescein isothiocyanate and propidium iodide (Annexin V-FITC Apoptosis Detection Kit, Sigma, #APOAF) were used to assess NSC apoptosis. Intact cells were Annexin V^−PI^−. Early and late apoptotic cells were Annexin V^+PI^− and Annexin V^+PI^+, respectively. Necrotic cells were Annexin V−PI+. The number of early apoptotic cells (Annexin V^+PI^−; Phase II) and late apoptotic cells (Annexin V^+PI^+, Phase I) were used to calculate the percentage of apoptotic cells. In a second method, propidium iodide (1 mg/mL) and […] (1 mM) were added to cultured cells for 15 min, followed by high content imaging analysis (Oppretta, GE) to quantify the percentage of Hoechst positive (all) cells that are PI positive (dead) cells. In the third method, Cell viability was measured using CellTiter-Glo Luminescent Cell Viability Assay (Promega). 2 μM Nutlin-3 (Nt3, Selleckchem, 51061) was added to proliferating aNPCs at 6 hours post-plating. Cells were then harvested 24 hours later with CellTiter-Glo buffer at room temperature. Signal intensity was immediately measured using a Glomax plate reader (Promega) according to manufacturer's instruction.

In series [3] the test system is Fmr1 KO mice. Kind of series: Novel location test (NLT). It counts as in vivo, mouse. The settings on record: for spatial memory deficits in the novel location test, long-term effect: tested at 24 weeks old. Here is the method:
(§1) All animal procedures were performed according to protocols approved by the University of Wisconsin-Madison Care and Use Committee. All mice were on C57B/L6 genetic background. The Fmr1 KO/Nestin-GFP mice (Fmr1−/y::Nestin-GFP) were created by crossing female Fmr1 heterozygous KO mice (Fmr1+/−) (59) with homozygous Nestin-GFP transgenic males (60). Generation of FMRP inducible conditional mutant mice (Fmr1loxP/y::Nestin-CreERT2::Rosa26-tdt) and tamoxifen injections to induce recombination were performed as described (12). To induce recombination, mice (6-weeks old) received Tamoxifen (Sigma-Aldrich) daily for 5 d (160 mg/kg) as described (12). Nutlin-3 (10 mg/kg) was given to 7-8 week-old mice or 20-week old mice through IP injections every other day for 5 injections and sacrificed at either 24 hours, 4 weeks, 12, or 20 weeks after the last injection. For NSC differentiation analysis, mice also received four BrdU injections (100 mg/kg) between day 2 and 3 of Nutlin-3 injections. To induce recombination in FMRP inducible conditional mutant mice (Fmr1^loxP/y::Nestin-CreER^T2::Rosa26-tdt) mice, mice 6-weeks old male mice received Tamoxifen (Sigma-Aldrich) daily for 5 days (160 mg kg-1 i.p., 30 mg ml^−1 in 10% ethanol mixed with sunflower oil, SigmaAldrich) based on a published procedure (13). BrdU (Sigma-Aldrich, B5002) was made in a concentration of 20 mg/mL in PBS. Nutlin-3 (Nt3, Cayman Chemical, 10004372) was made in a concentration of 100 mg/mL in dimethyl sulfoxide (DMSO).
This test measures spatial memory through an evaluation of the ability of mice to recognize the new location of a familiar object with respect to spatial cues. The experimental procedure was performed as previously described (65). The mice were exposed to 2 identical objects for 6 minutes during the acquisition phase 3 times and tested at 3 minutes later. Object preference was evaluated during this session. During the trial session, one of the objects was moved to a novel location, and the mice were allowed to explore the objects for 6 minutes, and the total time spent exploring each object was measured. Exploration was considered as any investigative behavior (i.e., head orientation, sniffing occurring within <1.0 cm) or deliberate contact occurring with each object. The discrimination index was calculated as the percentage of time spent investigating the object in the new location minus the percentage of time spent investigating the object in the old location: discrimination index=(Novel Location exploration time/total exploration time×100)−(old Location exploration time/total exploration time×100). All experiments were videotaped and scored by scientists who were blinded to experimental conditions.

Series [4] relates to Fmr1 KO mice. Put plainly: Novel object recognition (NOR) test. Format: in vivo, mouse. On the procedure:
as §1
This test is based on the natural propensity of rodents to preferentially explore novel objects over familiar ones. The experimental procedure was performed as previously described (38). On the first day, mice were habituated for 10 min to the maze in which the task was performed. On the second day, mice were put back in the maze for 10 min, and two identical objects were presented. 24 hours later, one of the familiar objects was replaced with a novel object, and the mice were again placed in the maze and were allowed to explore for 10 min, and the total time spent exploring each of the two objects (novel and familiar) was measured. The discrimination index was calculated as the difference between the percentages of time spent investigating the novel object and the time spent investigating the familiar objects: discrimination index=(novel object exploration time/total exploration time×100)−(familiar object exploration time/total exploration time×100). All experiments were videotaped and scored by scientists who were blinded to experimental conditions.

[5] abbreviates: Fmr1 KO NPCs, 1 μM MK2206, 2 μM Nutlin-3, 1 μM RG7112.
The mark [6] stands for this setting: wildtype NPCs, 1 μM MK2206, 2 μM Nutlin-3.
Setting [7] is: Fmr1 KO mice treated at 20 weeks old (middle aged), 24-weeks-old at test.
The mark [8] stands for this setting: Fmr1 KO mice, treated as young adults, tested 4 weeks later.
[9] abbreviates: wildtype mice, tested 4 weeks after treatment.

On to `COc1ccc(C2=N[C@@H](c3ccc(Cl)cc3)[C@@H](c3ccc(Cl)cc3)N2C(=O)N2CCNC(=O)C2)c(OC(C)C)c1` [Nutlin-3], for which the “astroglial differentiation (GFAP+)” value was “specifically rescued astroglial differentiation phenotypes” in series [1] (setting [5]) and “without a significant effect on wildtype NPCs” in series [1] (setting [6]). The “neuronal differentiation (Tuj1+)” value in series [1] (setting [5]) is “rescued neuronal differentiation phenotypes”; in series [1] (setting [6]), “without a significant effect on wildtype NPCs”. The “cell death and survival” value in series [2] (Fmr1 KO NPCs) is “did not exhibit significant effects on cell death and survival”; in series [2] (wildtype NPCs), “did not exhibit significant effects on cell death and survival”. The “spatial memory deficits in the novel location test, long-term effect” value in the series with Fmr1 KO mice [3] (Fmr1 KO mice treated at 8 weeks old) and with Fmr1 KO mice [3] (Fmr1 conditional KO mice treated at 8 weeks old) was “long-term effects to fully rescue spatial memory deficits” throughout. Besides, in the series on Fmr1 KO mice [3] (setting [7]), the “spatial memory deficits in the novel location test” value is recorded as “fully rescued spatial memory deficits”. In addition, the entries for the “performance on the novel location test (discrimination index)” value in the series on Fmr1 KO mice [3] (setting [8]) and in the series on Fmr1 KO mice [3] (setting [9]) were “rescued performance” and “no significant effect on wildtype mice”, respectively. The “cognitive deficits in the NOR test, long-term effect” value in the series on Fmr1 KO mice [4] (Fmr1 KO mice treated at 8 weeks old, tested at 24 weeks old) is listed as “long-term effects to fully rescue cognitive deficits”. Besides, in the series with Fmr1 KO mice [4] (setting [7]), the “cognitive deficits in the NOR test” value is listed as “fully rescued cognitive deficits”. Moreover, the results for the “performance on the novel object recognition test (discrimination index)” value in the series with Fmr1 KO mice [4] (setting [8]) and in the series with Fmr1 KO mice [4] (setting [9]) were “rescued performance” and “no significant effect on wildtype mice”, respectively.
